Literature values as cited in US6420614B1, “Process for obtaining 3′-epilutein” (Industrial Organica, S.A. DE C.V., priority 2000, dated 2002).

Test system: egg yolk
Conditions: relative potency of zeaxanthin stereoisomers; (3R,3′R)-zeaxanthin = 100%

SMILES | potency in pigmenting of egg yolk
CC1=C(/C=C/C(C)=C/C=C/C(C)=C/C=C/C=C(C)/C=C/C=C(C)/C=C/C2=C(C)C[C@H](O)CC2(C)C)C(C)(C)C[C@@H](O)C1 (single isomer, unassigned) [(3S, 3′S)-zeaxanthin (enantiomer)] | 86%
CC1=C(/C=C/C(C)=C/C=C/C(C)=C/C=C/C=C(C)/C=C/C=C(C)/C=C/C2=C(C)C[C@@H](O)CC2(C)C)C(C)(C)C[C@H](O)C1 [(3R, 3′R)-zeaxanthin (III), (3R,3′R)-zeaxanthin] | 100%
CC1=C(/C=C/C(C)=C/C=C/C(C)=C/C=C/C=C(C)/C=C/C=C(C)/C=C/C2=C(C)C[C@H](O)CC2(C)C)C(C)(C)C[C@H](O)C1 [(3R, 3′S)-zeaxanthin (meso, II), (3R,3′S)-zeaxanthin] | 37%
CC1=C(/C=C/C(C)=C/C=C/C(C)=C/C=C/C=C(C)/C=C/C=C(C)/C=C/C2=C(C)C[C@@H](O)CC2(C)C)C(C)(C)C[C@H](O)C1 [(3RS, 3′SR)-zeaxanthin (racemic), (3RS, 3′SR)-zeaxanthin] | 92%
